Consider 3 molecules from patent US6545030B1, “1-heterocycle substituted diarylamines” (Warner-Lambert Company, priority 1999, dated 2003).

As a reminder, the melting point is the temperature of the solid-liquid transition.

Structures are written as SMILES. Where a name gives a salt, the structure may show the parent alone.

The molecule `Cc1cc(I)ccc1Nc1c(-c2nnc(S)o2)ccc(F)c1F` [Example 10, 5-[3,4-Difluoro-2-(4-iodo-2-methyl-phenylamino)-phenyl]-[1,3,4]oxadiazole-2-thiol] gave a melting point of 231.8 to 232.8 °C.

For `Cc1cc(I)ccc1Nc1c(-c2nnco2)ccc(F)c1F` [Example 9, (2,3-Difluoro-6-[1,3,4]oxadiazol-2-yl-phenyl)-(4-iodo-2-methyl-phenyl)-amine], the melting point was in the range of 144.4 to 145.5 °C.

`Cc1cc(I)ccc1Nc1ccc(Cl)cc1C1=NC(C)(C)CO1` (as salt: salt) [Example 1, [4-Chloro-2-(4,4-Dimethyl-4,5-dihydro-oxazol-2-yl)-phenyl]-(4-iodo-2-methyl-phenyl)-amine]: the melting point is 324 to 330 °C.
